How the values were obtained:
[1] = tested on: nematodes; experiment: Protection of other crops against attack by nematodes; type: in vivo; settings: applied on tomatoes, soybean, carrots, potatoes and beet
Description: Good effects for protecting plants against attack by nematodes are also found by applying acibenzolar-S-methyl on tomatoes, soybean, carrots, potatoes and beet.

[2] = tested on: root-knot nematodes (Meloidogyne javanica and M. arenaria); experiment: Percentage galling on grapevine roots after foliar spray; type: in vivo; settings: 50 mg/l foliar spray
Protocol: (§1) Root-knot nematodes (Meloidogyne spp.) are cultured on tobacco or tomato. Root-knot nematode eggs are collected from these plants and hatched for inoculation of the grapevines using the standard method. Nematode eggs are collected from the inoculated grapevines by agitating clean root pieces in 0,8% NaOCl for four minutes. The roots are washed on a bank of three sieves and eggs collected on a 25 μm sieve. The eggs are washed into 100 ml of water and the number of eggs in a 20 ml sub-sample is estimated using a Doncaster dish. Galling is assessed in grapevine roots before egg counts. The roots are assessed with the naked eye for percentage of galls on the roots.
(§2) Uniformly developed rooted hardwood grapevine cuttings, variety Cabernet Sauvignon (Vitis vinifera), are planted into 20 cm diameter pots (one plant per pot) containing a pasteurised potting mix consisting of 50:50 coarse sand and peat. (Prior to pasteurisation, 300 g of fertiliser is added to each 50 liter bin of potting mix. The fertiliser consisted of 1000 g single superphosphate, 200 g ammonium nitrate, 150 g potassium sulphate, 100 g ferrous sulphate, 3000 g dolomite lime and 1500 g lime). The grapevines are grown in a glasshouse at 19-24° C. The plants are watered on alternate days, and fertilised weekly with a water soluble fertiliser. Grapevines are inoculated with 1000 juveniles of a mixed population of root-knot nematodes (Meloidogyne javanica and M. arenaria) 4 weeks after planting. The nematodes are pipetted into two 2cm deep holes at the base of the plant. Grapevine roots are harvested for nematode egg counts 10 weeks after inoculation (described below).
(§3) Acibenzolar-S-methyl (which is benzo(1,2,3)thiadiazole-7-carbothioic acid S-methyl ester, a plant activator from NOVARTIS) is formulated as a 50% water dispersible granule, diluted to 50 mg per liter of spray mixture and sprayed onto the leaves of the grapevines (using a hand-held sprayer) until the point of run-off.
(§4) b) single applications: A second series of experiments tested only single applications of acibenzolar-S-methyl either five days before inoculation, at the same time as inoculation or five days after inoculation. Both series of experiments have been completed twice. Water is used as the control treatment in each series.
(§5) The tables indicate the number of eggs produced by Meloidogyne spp in a 20 ml sub-sample, and the percentage galling on roots, resp.

[3] = tested on: grapevines; experiment: Plant tolerance (phytotoxicity, appearance, fresh weights) of treated grapevines; type: in vivo, Vitis vinifera (Cabernet Sauvignon); settings: 50 mg/l foliar spray
Protocol: as §2, §3

[4] = tested on: Eggs and juvenile root-knot nematodes; experiment: Direct effect on eggs and juvenile root-knot nematodes in aqueous solution; parameters: species or system Meloidogyne spp.
Description: Direct Effect of Acibenzolar-S-methyl onto Nematodes Eggs and juvenile root-knot nematodes are placed into aqueous solutions of acibenzolar-S-methyl (1, 10, 20 and 50 ppm active ingredient). No effect is observed on egg hatching and viability on those eggs and juvenils on penetration of those nematodes into tomato roots and on the number of eggs produced by those nematodes on tomatoes.

[5] = tested on: root-knot nematodes (Meloidogyne javanica and M. arenaria); experiment: Egg production by root-knot nematodes on inoculated grapevines after foliar spray; type: in vivo; settings: 50 mg/l foliar spray, eggs in 20 ml sub-sample
Protocol: as §1, §2, §3
a) cumulative applications: In the first series, acibenzolar-S-methyl is applied to the plants once, twice or three times. The single treatment of acibenzolar-S-methyl is applied one week before inoculation; the double treatment is applied one week before inoculation and at the same time as inoculation; for the third treatment acibenzolar-S-methyl is applied one week before inoculation, at inoculation and one week after inoculation.
as §4, §5

[6] = after exposure to aqueous solutions, 1, 10, 20 and 50 ppm active ingredient

CSC(=O)c1cccc2nnsc12 [acibenzolar-S-methyl, benzo(1,2,3)thiadiazole-7-carbothioic acid S-methyl ester]
protecting plants against attack by nematodes [1]: Good effects | Mean percentage galling ([2]; single application at inoculation, first experiment, control 10): 2.3 (8) % | Mean percentage galling ([2]; single application at inoculation, second experiment, control 5): 3 (6) % | Mean percentage galling ([2]; single application five days after inoculation, first experiment, control 10): 1.1 (8) % | Mean percentage galling ([2]; single application five days after inoculation, second experiment, control 5): 4 (8) % | Mean percentage galling ([2]; single application five days before inoculation, first experiment, control 10): 0.6 (8) % | Mean percentage galling ([2]; single application five days before inoculation, second experiment, control 5): 2 (7) % | appearance of grapevines at harvest ([3]; versus water control): no significant differences | phytotoxicity ([3]; grapevines): No phytotoxicity | root fresh weights or fresh weight of the foliage and stems ([3]; grapevines): no difference | effect on number of eggs produced by the nematodes on tomatoes [4, 6]: No effect | effect on penetration of nematodes into tomato roots [4, 6]: No effect | effect on egg hatching and viability of eggs and juveniles ([4]; aqueous solutions, 1, 10, 20 and 50 ppm active ingredient): No effect | Number of eggs ([5]; one application (one week before inoculation), first experiment, 10 weeks after inoculation, control 4320): 1520 (8) | Number of eggs ([5]; one application (one week before inoculation), second experiment, control 240): 150 (7) | Number of eggs ([5]; three applications (one week before, at and one week after inoculation), first experiment, control 4320): 1400 (6) | Number of eggs ([5]; three applications (one week before, at and one week after inoculation), second experiment, control 240): 20 (7) | Number of eggs ([5]; two applications (one week before and at inoculation), first experiment, control 4320): 740 (7) | Number of eggs ([5]; two applications (one week before and at inoculation), second experiment, control 240): 100 (7)

From patent publication US6403621B1, “Method for protecting plants” (Syngenta Crop Protection, Inc., priority 1997, dated 2002)
